Here are results for 2 compounds from patent US20020061838A1, “Peptide pharmaceutical formulations” (priority 2000, published 2002).

The conditions of data set [1]: pH 7.4; cited from earlier work.
The nature of data set [2]: Long-term stability in the preferred embodiment (HPLC and/or bioactivity).
Procedure: The vials containing 1 mL of formulated drug were put into thermostatted chambers and assayed for % peptide remaining as a function of time after storage at different temperatures. Bioactivity of the formulations at the time points was also measured.
GRF activity was assessed similarly using a cell line containing an expressed GRF receptor and monitoring the response of cell to GRF by the cAMP-responsive secreted alkaline phosphatase reporter system.
Data set [3] in a line: Tolerability and response after subcutaneous or intravenous delivery of the formulations in humans.
The nature of data set [4]: Total GRF in plasma after intravenous bolus in a rat. It is filed as in vivo. The note with it: intravenous bolus of 20 μg, 10 mM sodium acetate, 5.07% D-mannitol, pH 4.7.
Procedure: Total GRF detected in the plasma of a rat following intravenous administration of 20 μg of GRF in the preferred formulation (4 mg/mL GRF dissolved in 10 mM sodium acetate, 5.07% D-mannitol, adjusted to pH 4.7).
A short description of data set [5]: Stability of GLP-1, PTH and GRF in the preferred formulation by reversed phase HPLC (percent peptide remaining). The note with it: 10 mM acetate; for Percent peptide remaining: 5.07% (w/v) D-mannitol, pH 4.7; for stability: 4, 8, and 10 mg/mL, pH 4.7, 5.07% D-mannitol.
Procedure: The vials were stored at the indicated temperatures for the indicated times. Samples were removed and assayed for the loss of parent peptide by HPLC, using a reversed phase C18 (1×15 cm) analytical column. Samples (10 μl) were injected directly and resolved with a gradient of acetonitrile in water, in the presence of 0.1% trifluoroacetic acid. Percent peptide remaining at the times indicated was calculated as the area of the intact peptide divided by the total area of the intact peptide plus that of the decomposition products times 100.

In the case of PTH(1-34)OH, the “solubility at physiological pH” value in data set [1] is given as “up to 4 mg/mL”. Further, the “period over which the peptide was stable” value in data set [2] (about 0.005 to 1.0 mg/mL, 4° C., inventive formulations) amounted to 4 months.

For the compound `CC[C@H](C)[C@H](NC(=O)[C@H](C)NC(=O)[C@H](CC(=O)O)NC(=O)[C@H](C)NC(=O)[C@@H](N)Cc1ccc(O)cc1)C(=O)N[C@@H](Cc1ccccc1)C(=O)N[C@H](C(=O)N[C@@H](CC(N)=O)C(=O)N[C@@H](CO)C(=O)N[C@@H](Cc1ccc(O)cc1)C(=O)N[C@@H](CCCNC(=N)N)C(=O)N[C@@H](CCCCN)C(=O)N[C@H](C(=O)N[C@@H](CC(C)C)C(=O)NCC(=O)N[C@@H](CCC(N)=O)C(=O)N[C@@H](CC(C)C)C(=O)N[C@@H](CO)C(=O)N[C@@H](C)C(=O)N[C@@H](CCCNC(=N)N)C(=O)N[C@@H](CCCCN)C(=O)N[C@@H](CC(C)C)C(=O)N[C@@H](CC(C)C)C(=O)N[C@@H](CCC(N)=O)C(=O)N[C@@H](CC(=O)O)C(=O)N[C@H](C(=O)N[C@@H](CCSC)C(=O)N[C@@H](CO)C(=O)N[C@@H](CCCNC(=N)N)C(=O)N[C@@H](CCC(N)=O)C(=O)N[C@@H](CCC(N)=O)C(=O)NCC(=O)N[C@@H](CCC(=O)O)C(=O)N[C@@H](CO)C(=O)N[C@@H](CC(N)=O)C(=O)N[C@@H](CCC(N)=O)C(=O)N[C@@H](CCC(=O)O)C(=O)N[C@@H](CCCNC(=N)N)C(=O)NCC(=O)N[C@@H](C)C(=O)N[C@@H](CCCNC(=N)N)C(=O)N[C@@H](C)C(=O)N[C@@H](CCCNC(=N)N)C(=O)N[C@@H](CC(C)C)C(N)=O)[C@@H](C)CC)C(C)C)[C@@H](C)O` [GRF, GRF(1-44)amide], the complications of delivery result in data set [3] (human subjects, intravenous and subcutaneous delivery, preferred formulations) was “no significant complications”. In addition, the “discomfort at the injection site” value in data set [3] (humans, subcutaneous, about 1 mL) is recorded as “no apparent discomfort”. In addition, the “stability (additional formulations, extended periods)” value in data set [2] (4-6 weeks at 25° C.) and in data set [2] (12 months at 4° C.) was “at least 90%” in each case. The “stability compared with the GLP-1 formulations” value in data set [2] (formulations where the peptide is GRF or PTH, Drawings 3, 5) is on record as “comparable stability”. In addition, in data set [4], the “appearance of peptide in blood plasma” value is on record as “rapidly appears in the blood plasma”. The Percent peptide remaining is on record as 98% in data set [5] (4 mg/mL, 14 days, 4° C.); 96% in data set [5] (4 mg/mL, 14 days, 25° C.); 63% in data set [5] (4 mg/mL, 14 days, 50° C.); 98% in data set [5] (8 mg/mL, 14 days, 4° C.); 96% in data set [5] (8 mg/mL, 14 days, 25° C.); 63% in data set [5] (8 mg/mL, 14 days, 50° C.). Besides, the Percent peptide remaining in data set [5] (10 mg/mL, 14 days, 4° C.) is 98%; in data set [5] (10 mg/mL, 14 days, 25° C.), 96%; in data set [5] (10 mg/mL, 14 days, 50° C.), 63%. Moreover, the stability result in data set [5] (25° C., 14 days) is recorded as “at least 96%”; in data set [5] (50° C., 14 days), 63%; in data set [5] (−20° C. to 4° C., over 14 days), “at least 98%”.
